Here are results for 16 compounds from patent US20240308998A1, “PYRROLOPYRIDONE DERIVATIVES USEFUL IN THE TREATMENT OF CANCER” (Tay Therapeutics Limited, priority 2021, published 2024).

In general, IC50 refers to the concentration that gives 50% inhibition.

One data set deals with T1, BRD4 BD2 (Homo sapiens, UniProt O60885).
T1 construct: HEK293 cells were transfected using NanoLuc-BRD4-BD1 or NanoLuc-BRD4-BD2 fusion vectors; host or cells: HEK293
Nature of the data set: NanoBRET bromodomain assay, BRD4 BD2. As to conditions: for Fold selectivity BRD4 BD1/BD2: IC50 BD1/IC50 BD2; for IC50: NanoBRET, HEK293 cells transfected with NanoLuc-BRD4-BD2. The class given is cell-based. How it is done: (§1) HEK293 cells were transfected using NanoLuc-BRD4-BD1 or NanoLuc-BRD4-BD2 fusion vectors and incubated at 37° C. in an atmosphere of 5% CO2 for 20-24 hours. The transfected cells were then dispensed into 96-well plates using 90 μl cell suspension per well containing 2×10^5 cells/ml in Opti-MEM and 1x final concentration of tracer. 90 μl per well of cell suspension without tracer was also dispensed into at least 3 wells as “No tracer control samples” for background correction. Serially diluted test compounds were prepared at 1000× concentration in DMSO and further diluted to 10× concentration in Opti-MEM. 10 μl per well of the serially diluted 10× test compound was added to the 96-well plates containing cells with 1x tracer. Plates were then incubated at 37° C.+5% C02 incubator for 2 hours. Immediately prior to BRET measurements, a 3x solution consisting of 1:166 dilution of Nano-Glo® Substrate plus a 1:500 dilution of Extracellular NanoLuc Inhibitor in Opti-MEM was prepared and 50 μl per well was added to the cells. Donor emission (450 nm) and acceptor emission (610 nm) were measured using PHERAstar (BMG LabTech). For data analysis, the raw BRET ratio was generated and converted to milliBRET units with background correction using the formula: [(Acceptorsample/Donorsample)−(Acceptorno tracer control/Donorno tracer control)]×1000. The mBU data was plotted as a function of compound concentration and IC50s for BRET assay were determined by nonlinear regression analysis of concentration response curves using the GraphPad Prism software.
Fold Selectivity Calculated (IC50 BD1/IC50 BD2).
In general terms: In BRET a luciferase serves as donor, and the signal depends on an acceptor being close.

Data set [1] in a line: Intrinsic clearance in rat liver microsomes. It counts as in vitro ADME. As to conditions: pH 7.4, NADPH, read-out: Rat Microsomal Stability T½. How it is done: A 50 mM stock solution (in DMSO) was prepared for the compound. From the stock solution, a working solution of 0.5 mM was prepared by diluting the compound in DMSO. This concentration of working solution was prepared considering a final concentration of 1 uM with 0.1% DMSO. The compound (1 uL of working solution) was spiked in PBS with pH 7.4 (22 uL) at a concentration of 1 uM. Subsequently, 110 uL of 10 mM NADPH was added (as a co-factor). The sample was incubated at 37° C. for 15 min. Following this, pre-warmed rat liver microsomes (27.5 uL; final protein conc. 0.5 mg/mL) were added. The samples were then incubated at 37° C. Aliquots of samples were withdrawn at 0, 5, 15, 30, 45 and 60 min. The reaction was stopped by using chilled acetonitrile containing internal standard. The samples were centrifuged and the supernatants analysed by LC-MS/MS. The percent compound remaining at each time point was calculated with respect to that of the 0 min sample. The data were then analysed to calculate half-life. Note that control samples were run without NADPH and blank samples were prepared using DMSO without the test Compound.
In general terms: Liver microsomes are a subcellular fraction often used to study metabolism.

A further data set has as its target T2, BRD4 BD1 (Homo sapiens, UniProt O60885).
T2 construct: HEK293 cells were transfected using NanoLuc-BRD4-BD1 or NanoLuc-BRD4-BD2 fusion vectors; host or cells: HEK293
Nature of the data set: NanoBRET bromodomain assay, BRD4 BD1. It counts as cell-based. As to conditions: HEK293 cells transfected with NanoLuc-BRD4-BD1. How it is done: as §1

Structures are written as SMILES. Structures can show the parent of a compound that is named as a salt.

For `Cc1cccc(C)c1Oc1cn(C)c(=O)cc1-c1cn(C)c(=O)c2[nH]c(-c3cn(C(C)C)nc3C)cc12` [Example 6, 4-(5-(2,6-dimethylphenoxy)-1-methyl-2-oxo-1,2-dihydropyridin-4-yl)-2-(1-isopropyl-3-methyl-1H-pyrazol-4-yl)-6-methyl-1,6-dihydro-7H-pyrrolo[2,3-c]pyridin-7-one], on BRD4 BD2, the “Fold selectivity BRD4 BD1/BD2” value is “xxx (Fold >200)” and the IC50 was at most 50 nM. Moreover, the half-life at 1 uM in data set [1] was above 60 min. Also, the IC50 at BRD4 BD1 lay in the range of 500 to 1000 nM.

Take `Cc1cccc(C)c1Oc1cn(C)c(=O)cc1-c1cn(C)c(=O)c2[nH]c(-c3ccccc3)cc12` [Example 8, 4-(5-(2,6-dimethylphenoxy)-1-methyl-2-oxo-1,2-dihydropyridin-4-yl)-6-methyl-2-phenyl-1,6-dihydro-7H-pyrrolo[2,3-c] pyridin-7-one]: at BRD4 BD2, the “Fold selectivity BRD4 BD1/BD2” value is “xx (Fold >50 and ≤200)”; the 50% inhibitory concentration (IC50) lay within 50 to 200 nM. The half-life at 1 uM in data set [1] was above 60 min. Moreover, the IC50 on BRD4 BD1 was above 1000 nM.

On to `Cc1cccc(C)c1Oc1cn(C)c(=O)cc1-c1cn(C)c(=O)c2[nH]c(-c3cccnc3)cc12` [Example 9, 4-(5-(2,6-dimethylphenoxy)-1-methyl-2-oxo-1,2-dihydropyridin-4-yl)-6-methyl-2-(pyridin-3-yi)-1,6-dihydro-7H-pyrrolo[2,3-c] pyridin-7-one.TFA], for which, on BRD4 BD2, the “Fold selectivity BRD4 BD1/BD2” value was “x (Fold >2 and ≤50)”; the IC50 was in the range of 200 to 1000 nM. Besides, the half-life at 1 uM in data set [1] is above 60 min. This compound showed a half-maximal inhibitory concentration (IC50) at BRD4 BD1 above 1000 nM.

For the compound `Cc1cccc(C)c1Oc1cn(C)c(=O)cc1-c1cn(C)c(=O)c2[nH]c(-c3ccncc3)cc12` [Example 10, 4-(5-(2,6-dimethylphenoxy)-1-methyl-2-oxo-1,2-dihydropyridin-4-yl)-6-methyl-2-(pyridin-4-yl)-1,6-dihydro-7H-pyrrolo[2,3-c] pyridin-7-one], on BRD4 BD2, the “Fold selectivity BRD4 BD1/BD2” value is recorded as “xxx (Fold >200)” and the concentration for half-maximal inhibition (IC50) was at most 50 nM. For the same compound, the half-life at 1 uM in data set [1] came out at 44 min. Moreover, at BRD4 BD1, the IC50 was above 1000 nM.

On to `Cc1cccc(C)c1Oc1cn(C)c(=O)cc1-c1cn(C)c(=O)c2[nH]c(-c3cn(C)nc3C)cc12` [Example 12, 2-(1,3-dimethyl-1H-pyrazol-4-yl)-4-(5-(2,6-dimethylphenoxy)-1-methyl-2-oxo-1,2-dihydropyridin-4-yl)-6-methyl-1,6-dihydro-7H-pyrrolo[2,3-c] pyridin-7-one], for which, on BRD4 BD2, the “Fold selectivity BRD4 BD1/BD2” value is “xx (Fold >50 and ≤200)”; the IC50 was at most 50 nM. The half-life at 1 uM in data set [1] was above 60 min. Besides, the IC50 on BRD4 BD1 fell in the range of 500 to 1000 nM.

`Cc1cccc(C)c1Oc1cn(C)c(=O)cc1-c1cn(C)c(=O)c2[nH]c(-c3ccn(C)c3)cc12` [Example 13, 4-(5-(2,6-dimethylphenoxy)-1-methyl-2-oxo-1,2-dihydropyridin-4-yl)-6-methyl-2-(1-methyl-1H-pyrrol-3-yl)-1,6-dihydro-7H-pyrrolo[2,3-c] pyridin-7-one]: on BRD4 BD2, the “Fold selectivity BRD4 BD1/BD2” value is on record as “xxx (Fold >200)” and the IC50 was at most 50 nM. Further, in data set [1], the half-life at 1 uM was above 60 min. Besides, the IC50 at BRD4 BD1 is above 1000 nM.

On to `Cc1ccccc1-c1cc2c(-c3cc(=O)n(C)cc3Oc3c(C)cccc3C)cn(C)c(=O)c2[nH]1` [Example 15, 4-(5-(2,6-dimethylphenoxy)-1-methyl-2-oxo-1,2-dihydropyridin-4-yl)-6-methyl-2-(o-tolyl)-1,6-dihydro-7H-pyrrolo[2,3-c] pyridin-7-one], for which, on BRD4 BD2, the “Fold selectivity BRD4 BD1/BD2” value was “x (Fold >2 and ≤50)”. For the same compound, the IC50 against BRD4 BD2 was 200 to 1000 nM; at BRD4 BD1 it was above 1000 nM. The half-life at 1 uM in data set [1] was 23 min.

`Cc1ccc(F)c(-c2cc3c(-c4cc(=O)n(C)cc4Oc4c(C)cccc4C)cn(C)c(=O)c3[nH]2)c1` [Example 16, 4-(5-(2,6-dimethylphenoxy)-1-methyl-2-oxo-1,2-dihydropyridin-4-yl)-2-(2-fluoro-5-methylphenyl)-6-methyl-1,6-dihydro-7H-pyrrolo[2,3-c] pyridin-7-one]: on BRD4 BD2, the “Fold selectivity BRD4 BD1/BD2” value is given as “xxx (Fold >200)” and the IC50 was at most 50 nM. Besides, the half-life at 1 uM in data set [1] is above 60 min. This compound also displayed a 50% inhibitory concentration (IC50) against BRD4 BD1 above 1000 nM.

As for `Cc1ccc(F)cc1-c1cc2c(-c3cc(=O)n(C)cc3Oc3c(C)cccc3C)cn(C)c(=O)c2[nH]1` [Example 18, 4-(5-(2,6-dimethylphenoxy)-1-methyl-2-oxo-1,2-dihydropyridin-4-yl)-2-(5-fluoro-2-methylphenyl)-6-methyl-1,6-dihydro-7H-pyrrolo[2,3-c] pyridin-7-one], on BRD4 BD2, the “Fold selectivity BRD4 BD1/BD2” value is “xx (Fold >50 and ≤200)”; the IC50 lay within 50 to 200 nM. Further, the half-life at 1 uM in data set [1] is above 60 min. For the same compound, on BRD4 BD1, the IC50 is above 1000 nM.

Regarding `Cc1ccc(C)c(-c2cc3c(-c4cc(=O)n(C)cc4Oc4c(C)cccc4C)cn(C)c(=O)c3[nH]2)c1` [Example 19, 4-(5-(2,6-dimethylphenoxy)-1-methyl-2-oxo-1,2-dihydropyridin-4-yl)-2-(2,5-dimethylphenyl)-6-methyl-1,6-dihydro-7H-pyrrolo[2,3-c] pyridin-7-one], on BRD4 BD2, the “Fold selectivity BRD4 BD1/BD2” value is “x (Fold >2 and ≤50)”; the IC50 lay in the range of 200 to 1000 nM. Also, the half-life at 1 uM in data set [1] was above 60 min. The half-maximal inhibitory concentration (IC50) at BRD4 BD1 is above 1000 nM.

For the compound `Cc1ccc(Cl)cc1-c1cc2c(-c3cc(=O)n(C)cc3Oc3c(C)cccc3C)cn(C)c(=O)c2[nH]1` [Example 20, 2-(5-chloro-2-methylphenyl)-4-(5-(2,6-dimethylphenoxy)-1-methyl-2-oxo-1,2-dihydropyridin-4-yl)-6-methyl-1,6-dihydro-7H-pyrrolo[2,3-c] pyridin-7-one], on BRD4 BD2, the “Fold selectivity BRD4 BD1/BD2” value is “x (Fold >2 and ≤50)”; the IC50 is 200 to 1000 nM. The half-life at 1 uM in data set [1] was above 60 min. The compound further returned a half-inhibitory concentration (IC50) against BRD4 BD1 above 1000 nM.

Turning to `Cn1cc(C2CCCC2)c(-c2cn(C)c(=O)c3[nH]c(-c4ccccc4)cc23)cc1=O` [Example 55, 5-cyclopentyl-1-methyl-4-{6-methyl-7-oxo-2-phenyl-1H-pyrrolo[2,3-c]pyridin-4-yl}pyridin-2-one], on BRD4 BD2, the “Fold selectivity BRD4 BD1/BD2” value is “x (Fold >2 and ≤50)”; the IC50 is at most 50 nM. The IC50 against BRD4 BD1 was in the range of 50 to 500 nM.

As to `C#Cc1cn(C)c(=O)cc1-c1cn(C)c(=O)c2[nH]c(-c3cnn(C(C)C)c3)cc12` [Example 56, 5-ethynyl-4-[2-(1-isopropylpyrazol-4-yl)-6-methyl-7-oxo-1H-pyrrolo[2,3-c]pyridin-4-yl]-1-methylpyridin-2-one], at BRD4 BD2, the “Fold selectivity BRD4 BD1/BD2” value is “x (Fold >2 and ≤50)”. For the same compound, the figures for the IC50 against BRD4 BD2 and against BRD4 BD1 were at most 50 nM and 50 to 500 nM, respectively.

As to `CC#Cc1cn(C)c(=O)cc1-c1cn(C)c(=O)c2[nH]c(-c3cnn(C(C)C)c3)cc12` [Example 57, 4-[2-(1-isopropylpyrazol-4-yl)-6-methyl-7-oxo-1H-pyrrolo[2,3-c]pyridin-4-yl]-1-methyl-5-(prop-1-yn-1-yl)pyridin-2-one], on BRD4 BD2, the “Fold selectivity BRD4 BD1/BD2” value is “x (Fold >2 and ≤50)”. In addition, the IC50 was at most 50 nM at BRD4 BD2 and 50 to 500 nM against BRD4 BD1.

For the compound `CC#Cc1cn(C)c(=O)cc1-c1cn(C)c(=O)c2[nH]c(-c3cc(C)nc(C)c3)cc12` [Example 58, 4-[2-(2,6-dimethylpyridin-4-yl)-6-methyl-7-oxo-1H-pyrrolo[2,3-c]pyridin-4-yl]-1-methyl-5-(prop-1-yn-1-yl)pyridin-2-one], on BRD4 BD2, the “Fold selectivity BRD4 BD1/BD2” value is reported as “xxx (Fold >200)” and the IC50 was at most 50 nM. The compound also yielded a half-maximal inhibitory concentration (IC50) against BRD4 BD1 above 1000 nM.

For `Cc1cccc(C)c1Oc1cn(C)c(=O)cc1-c1cn(C)c(=O)c2[nH]c(-c3cnn(CS(C)(=O)=O)c3)cc12` [Example 65, 4-(5-(2,6-dimethylphenoxy)-1-methyl-2-oxo-1,2-dihydropyridin-4-yl)-6-methyl-2-(1-((methylsulfonyl)methyl)-1H-pyrazol-4-yl)-1,6-dihydro-7H-pyrrolo[2,3-c]pyridin-7-one], on BRD4 BD2, the “Fold selectivity BRD4 BD1/BD2” value was “x (Fold >2 and ≤50)”; the IC50 was at most 50 nM. Moreover, the half-inhibitory concentration (IC50) against BRD4 BD1 is above 1000 nM.
